The values that follow come from US10947213B1 (Merck Patent GmbH, priority 2015, dated 2021).

Structures are written as SMILES. pIC50: −log10 of the molar value. Counter-ions that a name gives are not always drawn. Where only a bound is given, the exact number is not on record here.

The assay addresses T1, TLR7/NFKb HEK cells (Homo sapiens, UniProt Q9NYK1).
T1 construct: expressed in transfected cells; host or cells: HEK cells (TLR7/NFKb reporter line)
T1 sequence (Q9NYK1 27-1049): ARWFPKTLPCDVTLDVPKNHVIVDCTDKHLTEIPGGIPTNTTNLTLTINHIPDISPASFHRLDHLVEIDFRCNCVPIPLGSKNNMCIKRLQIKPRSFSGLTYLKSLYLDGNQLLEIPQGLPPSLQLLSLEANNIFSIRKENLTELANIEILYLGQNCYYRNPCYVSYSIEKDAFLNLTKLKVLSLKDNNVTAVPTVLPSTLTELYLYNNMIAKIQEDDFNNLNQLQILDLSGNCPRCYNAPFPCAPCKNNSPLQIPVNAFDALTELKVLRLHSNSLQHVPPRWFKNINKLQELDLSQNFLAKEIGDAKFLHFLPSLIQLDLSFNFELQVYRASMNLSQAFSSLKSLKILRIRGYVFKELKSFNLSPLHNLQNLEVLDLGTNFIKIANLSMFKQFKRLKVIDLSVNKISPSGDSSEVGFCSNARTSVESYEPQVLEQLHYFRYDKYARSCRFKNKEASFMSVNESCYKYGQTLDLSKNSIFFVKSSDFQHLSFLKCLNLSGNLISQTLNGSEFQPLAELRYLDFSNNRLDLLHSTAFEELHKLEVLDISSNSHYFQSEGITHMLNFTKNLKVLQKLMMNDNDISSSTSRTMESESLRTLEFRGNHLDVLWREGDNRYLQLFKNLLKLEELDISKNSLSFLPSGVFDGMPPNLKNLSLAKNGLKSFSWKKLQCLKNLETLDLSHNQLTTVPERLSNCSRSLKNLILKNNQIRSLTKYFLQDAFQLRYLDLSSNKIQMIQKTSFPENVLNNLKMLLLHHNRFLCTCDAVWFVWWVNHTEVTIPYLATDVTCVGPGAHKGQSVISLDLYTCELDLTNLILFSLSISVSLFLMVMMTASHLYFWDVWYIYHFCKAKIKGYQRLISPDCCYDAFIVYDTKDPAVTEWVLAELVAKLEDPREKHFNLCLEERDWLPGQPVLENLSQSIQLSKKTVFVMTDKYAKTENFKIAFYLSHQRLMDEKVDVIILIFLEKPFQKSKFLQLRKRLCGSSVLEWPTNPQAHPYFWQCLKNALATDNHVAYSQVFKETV
Briefly: HEK Cell Assay (TLR7/NFKb reporter, Steady-Glo luciferase readout). The class given is cell-based. The following applies: 30 min compound preincubation, then R*48 agonist for 5 hours, read-out: Potency. The protocol: Example 142: HEK Cell Assay
Into 384 CulturePlates (Corning 3707) was placed 5000 c/w of TLR7/NFKb HEK cells in 30 uL DMEM without Phenil red (gibco #31053) and 10% i.a. FCS and 2 mM L-ZGLutamin. The cells were incubated for 24 h at 37° C., 10% carbon dioxide and 90% relative humidity. 3 uL of controls, standards, and compounds were dispensed into wells, incubated for 30 min then 3 uL of R*48 agonist in 20 mM Hepes was added. After incubation for 5 hours, they were allowed to stand at room temperature for 15 min. To this was added 10 uL of Steady-Glo substrate reagent and shake assay plate for 5 min at 1500 rpm. The assay plate was allowed to sit for 30 min at room temperature and then the plate was read on EnVision.
As to `Cc1ncc(N2C[C@@H](C)C[C@@H](NC(=O)CC(C)(C)O)C2)c2cccnc12` [Compound 555, 3-Hydroxy-3-methyl-N-[(3R,5S)-5-methyl-1-(8-methyl-[1,7]naphthyridin-5-yl)-piperidin-3-yl]-butyramide], the pIC50 was 5.00 to 6.00.
The value for `C[C@H]1C[C@@H](NC(=O)CN)CN(c2ccc(C#N)c3nccnc23)C1` [Compound 35, 2-amino-N-((3R,5S)-1-(8-cyanoquinoxalin-5-yl)-5-methylpiperidin-3-yl)acetamide hydrochloride] was greater than 6.00; that for `CN1CCC(NC(=O)C2CN(c3ccc(C#N)c4nccnc34)CC(F)(F)C2)CC1` (stereo not drawn) [Compound 529, 1-(8-Cyano-quinoxalin-5-yl)-5,5-difluoro-piperidine-3-carboxylic acid (1-methyl-piperidin-4-yl)-amide] was greater than 6.00; that for `CCC(C)C(=O)N[C@@H]1C[C@H](C)CN(c2ccc(C#N)c3nccnc23)C1` (single isomer, unassigned) [Compound 155] was 5.00 to 6.00.
The result for `C[C@H]1C[C@@H](NC(=O)C2(C)COC2)CN(c2ccnc3nccnc23)C1` [Compound 37, 3-methyl-N-((3R,5S)-5-methyl-1-(pyrido[2,3-b]pyrazin-8-yl)piperidin-3-yl)oxetane-3-carboxamide] reads less than 5.00.
The result for `FC(F)(F)c1ccc2nccc(N3CCC(CNCCN4CCCCC4)CC3)c2c1` [Compound 387, (2-Piperidin-1-yl-ethyl)-[1-(6-trifluoromethyl-quinolin-4-yl)-piperidin-4-ylmethyl]-amine] reads 5.00 to 6.00.
Take `COC(C)C(=O)N[C@@H]1C[C@H](C)CN(c2ccc(C#N)c3nccnc23)C1` (single isomer, unassigned) [Compound 159]: the pIC50 is 5.00 to 6.00.
The value for `C[C@H]1C[C@@H](N2CC[C@@H](N)C2=O)CN(c2ccnc3nccnc23)C1` [Compound 42, (3R)-3-amino-1-[(3R,5S)-5-methyl-1-[pyrido[2,3-b]pyrazin-8-yl]piperidin-3-yl]pyrrolidin-2-one] was less than 5.00; that for `CC(C(=O)N[C@@H]1C[C@H](C)CN(c2ccc(C(F)F)c3ncccc23)C1)N1CC(N)C1` (stereo partly drawn) [Compound 305, 2-(3-aminoazetidin-1-yl)-N-[(3R,5S)-1-[8-(difluoromethyl)quinolin-5-yl]-5-methylpiperidin-3-yl]propanamide] was greater than 6.00.
The result for `C[C@@H]1CN(c2ccnc3ccccc23)C[C@H](C)O1` [Compound 45, (2S,6R)-2,6-dimethyl-4-(quinolin-4-yl)morpholine] reads less than 5.00.
As to `CCN(CC)CCNC(=O)C1CCN(c2ncc(F)c3nccnc23)CC1` [Compound 456, 1-(8-Fluoro-pyrido[3,4-b]pyrazin-5-yl)-piperidine-4-carboxylic Acid (2-diethylamino-ethyl)-amide], the pIC50 is less than 5.00.
The value for `C[C@H]1C[C@@H](NC(=O)C2(N)CC2)CN(c2ccnc3nccnc23)C1` [Compound 30, 1-amino-N-((3R,5S)-5-methyl-1-(pyrido[2,3-b]pyrazin-8-yl)piperidin-3-yl)cyclopropanecarboxamide hydrochloride] was less than 5.00.
The value for `C[C@@H]1C[C@H](O)CN(c2ccc(C(F)(F)F)c3ncccc23)C1` (racemic) [Compound 461, cis-5-Methyl-1-(8-trifluoromethyl-quinolin-5-yl)-piperidin-3-ol] was greater than 6.00.
The value for `CC1CC(CN2CCN(C)CC2)CN(c2ccc(C(F)(F)F)c3ncccc23)C1` (single isomer, unassigned) [Compound 533, cis-5-[3-Methyl-5-(4-methyl-piperazin-1-ylmethyl)-piperidin-1-yl]-8-trifluoromethyl-quinoline] was greater than 6.00.
Regarding `CC(C)[C@H](O)C(=O)N[C@@H]1C[C@H](C)CN(c2ccnc3nccnc23)C1` [Compound 22, (S)-2-hydroxy-3-methyl-N-((3R,5S)-5-methyl-1-(pyrido[2,3-b]pyrazin-8-yl)piperidin-3-yl)butanamide], the pIC50 was 5.00 to 6.00.
The value for `CN1CCC(CC(=O)NC2CN(c3ccc(C#N)c4nccnc34)CC(F)(F)C2)CC1` (racemic) [Compound 504, N-[1-(8-Cyano-quinoxalin-5-yl)-5,5-difluoro-piperidin-3-yl]-2-(1-methyl-piperidin-4-yl)-acetamide] was greater than 6.00; that for `N#Cc1ccc(N2CCC(C(=O)NCCN3CCCCC3)CC2)c2cccnc12` [Compound 403, 1-(8-Cyano-quinolin-5-yl)-piperidine-4-carboxylic acid (2-piperidin-1-yl-ethyl)-amide] was greater than 6.00; that for `CCC(C)CC(=O)N[C@@H]1C[C@H](C)CN(c2ccc(C#N)c3nccnc23)C1` (single isomer, unassigned) [Compound 151] was greater than 6.00.
The result for `OC1CCC(NC2CC(C(F)(F)F)CN(c3ccnc4nccnc34)C2)CC1` (single isomer, unassigned) [Compound 94, trans,cis-4-((1-(pyrido[2,3-b]pyrazin-8-yl)-5-(trifluoromethyl)piperidin-3-yl)amino)cyclohexanol] reads less than 5.00; that for `C[C@H]1C[C@@H](NC(=O)CNC(C)(C)C)CN(c2ccnc3nccnc23)C1` [Compound 143, 2-(tert-butylamino)-N-[(3R,5S)-5-methyl-1-[pyrido[2,3-b]pyrazin-8-yl]piperidin-3-yl]acetamide], less than 5.00.
As for `CN(C)CC(=O)N[C@H]1C[C@@H](C(F)(F)F)CN(c2ccc(C#N)c3ncccc23)C1` (racemic) [Compound 426, cis-N-[1-(8-Cyano-quinolin-5-yl)-5-trifluoromethyl-piperidin-3-yl]-2-dimethylamino-acetamide], the pIC50 was greater than 6.00.
Turning to `C[C@H]1C[C@@H](NC(=O)CN(C)C)CN(c2ccnc3nccnc23)C1` [Compound 33, 2-(dimethylamino)-N-((3R,5S)-5-methyl-1-(pyrido[2,3-b]pyrazin-8-yl)piperidin-3-yl)acetamide], the pIC50 is 5.00 to 6.00.
The result for `C[C@H]1C[C@@H](NC(=O)[C@@H](C)N)CN(c2ccnc3nccnc23)C1` [Compound 26, (R)-2-amino-N-((3R,5S)-5-methyl-1-(pyrido[2,3-b]pyrazin-8-yl)piperidin-3-yl)propanamide] reads 5.00 to 6.00.
The result for `CCN1CCC[C@H]1C(=O)NC1CC(C(F)(F)F)CN(c2ccc(C#N)c3ncccc23)C1` (single isomer, unassigned) [Compound 438] reads 5.00 to 6.00.
The result for `C[C@H]1C[C@@H](NC(=O)CC2CCN(CC(F)F)CC2)CN(c2ccc(C(F)(F)F)c3ncccc23)C1` [Compound 246, 2-[1-(2,2-difluoroethyl)piperidin-4-yl]-N-[(3R,5S)-5-methyl-1-[8-(trifluoromethyl)quinolin-5-yl]piperidin-3-yl]acetamide] reads greater than 6.00.
On to `C[C@H]1C[C@@H](NC(=O)CN(C)C)CN(c2c(F)cc(C#N)c3nccnc23)C1` [Compound 347, N-[(3R,5S)-1-(8-cyano-6-fluoroquinoxalin-5-yl)-5-methylpiperidin-3-yl]-2-(dimethylamino)acetamide], for which the pIC50 is 5.00 to 6.00.
In the case of `CC(C(=O)N[C@@H]1C[C@H](C)CN(c2ccc(C#N)c3nccnc23)C1)N1CCC(O)CC1` (stereo partly drawn) [Compound 275, N-[(3R,5S)-1-(8-cyanoquinoxalin-5-yl)-5-methylpiperidin-3-yl]-2-(4-hydroxypiperidin-1-yl)propanamide], the pIC50 was greater than 6.00.
The result for `O=C(NCCN1CCCCC1)C1CCN(c2ccnc3nccnc23)CC1` [Compound 373, 1-Pyrido[2,3-b]pyrazin-8-yl-piperidine-4-carboxylic acid (2-piperidin-1-yl-ethyl)-amide] reads 5.00 to 6.00; that for `NC1CN(c2ccc(C(F)(F)F)c3ncccc23)CC(F)(F)C1` (single isomer, unassigned) [Compound 528], 5.00 to 6.00; that for `C[C@@H]1CN(c2ccc(C#N)c3nccnc23)C[C@H](CN2CCC(N3CCOCC3)CC2)O1` [Compound 467, 8-[(2R,6S)-2-methyl-6-{[4-(morpholin-4-yl)piperidin-1-yl]methyl}morpholin-4-yl]quinoxaline-5-carbonitrile], greater than 6.00.
